In patent publication US7015309B1 (The Wistar Institute of Anatomy and Biology, priority 1999, dated 2006):
Where two headings read alike, the source gives them in different places. Non-standard residues stand in square brackets, D forms with d. Residues, ends and D or L forms follow the SMILES beside them. No end group written: not given here. ξ: configuration not given here. Ac6c = NC1(C(=O)O)CCCCC1; ξDap = NCC(N)C(=O)O

What was measured:
[1] = within a four-hour period; cited from earlier work
[2] = within a four-hour period; cited from earlier work; remark: listed apart in the source
[3] = native glycosylated drosocin; cited from earlier work
[4] = system: bacteria; conditions: cited from earlier work
[5] = for Degradation product −C1, relative amount / Degradation product −C2, relative amount / Degradation product −C3, relative amount / Degradation product −C6, relative amount / Degradation product −N3, C2, relative amount / Degradation product −N3, relative amount / Degradation product −N5, C2, relative amount / Degradation product −N5, relative amount: 45-minute digestion
Description: (§1) Owing to the fact that the use of diluted serum increases peptide recovery as well as retards the reaction kinetics to a manageable rate, the experiments were conducted using 25% aqueous sera.
(§2) For serum stability studies, 10 μl of an aqueous peptide stock solution containing about 0.8 mg/ml peptide was added to 200 μl 25% aqueous pooled mouse or human serum (Sigma, St. Louis, Mo.), according to the process described in M. F. Powell et al, Pharmacol Res, 10: 1268–1273 (1993). The peptide-serum mixture was thermostated at 37° C. After 0 minutes, 45 minutes, 2 hours and 4 hours, three samples of each peptide were taken and precipitated by the addition of 40 μl 15% aqueous trichloroacetic acid. The samples were stored at 4° C. for 20 minutes and centrifuged. The peptides and some remaining serum proteins were recovered in the supernatant after the trichloroacetic acid precipitation. The supernatants were immediately frozen on dry-ice and 220 μl of each were analyzed on RP-HPLC. A mouse serum and two different batches of the same SIGMA catalog number of human sera (human 1, approximately 1 year old, and human 2, approximately 1 month old) were also used.
(§3) The lyophilized samples were redissolved in 0.1 aqueous TFA and submitted for matrix assisted laser desorption/ionization (MALDI-MS).
(§4) The missing residues are indicated (e.g—C2 means that the C-terminal two residues are cleaved off). […] In Table 4, the relative amounts of the degradation products are estimated based on the MALDI-MS peak heights. 0=not detected; 1=very weak (below 5000), 2=weak (5–10000), 3=medium (10–15000), 4=strong (15000-uncleaved molecular ion at 25–30000), 5=very strong (above uncleaved molecular ion).

[6] = after 8 hours of digestion, all sera studied
Description: as §1, §2, §3

[7] = system: sheep erythrocytes; experiment: Hemolytic activity, release of hemoglobin; conditions: for Absorbence at 405 nm: one hour, 39° C.
Description: To determine whether native and modified pyrrhocoricin peptides were toxic to mammalian cells, several peptides from Example 1 above, a positive control, and a negative control were examined for hemolytic activity. Hemolytic activity was assayed with sheep erythrocytes suspended in Alsever's solution (BioWhittaker, Walkersville, Md.), and diluted with Dulbecco's phosphate-buffered saline, pH 7.2. Thirty μL of a 1% suspension of the red blood cells was incubated with agitation at 39° C. with 30 μL of 40 to 256 μM of each of the following peptides dissolved in phosphate buffered saline for one hour and centrifuged at 1000 g for five minutes. Fifty μL of the supernatant was collected and the release of hemoglobin was detected by measuring the ultraviolet absorbences of triplicate samples of the 40 μM or 256 μM test peptides and the control peptides at 405 nm.

[8] = In vivo toxicity control, uninfected mice; design: species or system mice of CD-1 strain; conditions: 50 mg/kg dose, intravenous
[9] = mouse serum, 45-minute digestion, MALDI-MS peak height
Description: as §1, §2, §3, §4

[10] = in vitro; conditions: mouse, 25% aqueous pooled mouse serum
Description: as §1, §2, §3, §4

[11] = human 1 serum (approximately 1 year old)
[12] = human 2 serum (approximately 1 month old)

**Q.** Which results are given for GKPRPYSPRPTSHPRPIRV [drosocin]?
**A.** degradation in diluted human serum (in words) [1]: completely degraded; degradation in diluted mouse serum (in words) [2]: completely degraded; anti-bacterial activity when injected into mice (in words) [3]: no anti-bacterial activity; time needed to kill bacteria in vitro [4]: 12 to 24 h

**Q.** For `CC[C@H](C)[C@H](NC(=O)[C@@H]1CCCN1C(=O)[C@H](CCCNC(=N)N)NC(=O)[C@@H]1CCCN1C(=O)[C@@H]1CCCN1C(=O)[C@@H](NC(=O)[C@@H]1CCCN1C(=O)[C@H](CCCNC(=N)N)NC(=O)[C@@H]1CCCN1C(=O)[C@H](CC(C)C)NC(=O)[C@H](Cc1ccc(O)cc1)NC(=O)[C@H](CO)NC(=O)CNC(=O)[C@H](CCCCN)NC(=O)[C@H](CC(=O)O)NC(=O)C1(N)CCCCC1)[C@@H](C)O)C(=O)N[C@@H](Cc1ccc(O)cc1)C(=O)N[C@@H](CC(N)=O)C(=O)N[C@@H](CCCNC(=N)N)C(=O)NC(CNC(C)=O)C(N)=O` (stereo partly drawn) [Peptide 21, 1-aminocyclo-hexane carboxylic acid (Chex)-Pyrrhocoricin-β-acetyl-2,3-diamino propionic amide [Dap(Ac)]] (H-[Ac6c]DKGSYLPRPTPPRPIYNR[ξDap](Ac)-NH2), which “Degradation product −C1, relative amount” value [5, 11] is on record?
**A.** 0

**Q.** What about the “Degradation product −C2, relative amount” value [5, 11] of the same compound?
**A.** 4 (4=strong (15000-uncleaved molecular ion at 25–30000))

**Q.** And the “Degradation product −C3, relative amount” value [5, 11]?
**A.** 2 (2=weak (5–10000))

**Q.** What about the “Degradation product −C6, relative amount” value [5, 11] of the same compound?
**A.** 0

**Q.** And the “Degradation product −N3, C2, relative amount” value [5, 11]?
**A.** 0

**Q.** And the “Degradation product −N3, relative amount” value [5, 11]?
**A.** 0

**Q.** And the “Degradation product −N5, C2, relative amount” value [5, 11]?
**A.** 1 (1=very weak (below 5000))

**Q.** What about the “Degradation product −N5, relative amount” value [5, 11] of the same compound?
**A.** 2 (2=weak (5–10000))

**Q.** What about the “Degradation product −C1, relative amount” value [5, 12] of the same compound?
**A.** 0

**Q.** What about the “Degradation product −C2, relative amount” value [5, 12] of the same compound?
**A.** 4 (4=strong (15000-uncleaved molecular ion at 25–30000))

**Q.** And the “Degradation product −C3, relative amount” value [5, 12]?
**A.** 0

**Q.** What about the “Degradation product −C6, relative amount” value [5, 12] of the same compound?
**A.** 0

**Q.** And the “Degradation product −N3, C2, relative amount” value [5, 12]?
**A.** 0

**Q.** What about the “Degradation product −N3, relative amount” value [5, 12] of the same compound?
**A.** 0

**Q.** And the “Degradation product −N5, C2, relative amount” value [5, 12]?
**A.** 1 (1=very weak (below 5000))

**Q.** And the “Degradation product −N5, relative amount” value [5, 12]?
**A.** 2 (2=weak (5–10000))

**Q.** And the “resistance in human serum compared with Peptide 1 (in words)” value ([5]; human serum)?
**A.** generally more resistant than Peptide 1

**Q.** What about the “peptide still present (in words)” value [6] of the same compound?
**A.** traces

**Q.** And the “Absorbence at 405 nm” value ([7]; 40 μM peptide)?
**A.** 0.110 ± 0.049

**Q.** What about the “toxicity to sheep erythrocytes (in words)” value ([7]; 256 μM concentration) of the same compound?
**A.** completely non-toxic

**Q.** And the “Absorbence at 405 nm” value ([7]; 256 μM peptide)?
**A.** 0.143 ± 0.006

**Q.** What about the “toxicity of peptide alone (in words)” value [8] of the same compound?
**A.** Neither Peptides 1 nor 21 [SEQ ID NOS: 6 and 22, respectively] alone showed any toxicity

**Q.** And the “Degradation product −C1, relative amount” value [9]?
**A.** 0

**Q.** And the “Degradation product −C2, relative amount” value [9]?
**A.** 2 (2=weak (5–10000))

**Q.** And the “Degradation product −C3, relative amount” value [9]?
**A.** 0

**Q.** And the “Degradation product −C6, relative amount” value [9]?
**A.** 0

**Q.** What about the “Degradation product −N3, C2, relative amount” value [9] of the same compound?
**A.** 0

**Q.** And the “Degradation product −N3, relative amount” value [9]?
**A.** 0

**Q.** And the “Degradation product −N5, C2, relative amount” value [9]?
**A.** 0

**Q.** What about the “Degradation product −N5, relative amount” value [9] of the same compound?
**A.** 2 (2=weak (5–10000))

**Q.** What about the remaining at 8 h [10] of the same compound?
**A.** 20%
